Values of other authors in US12263152B2, “Method of preventing and treating chemotherapy-induced alopecia” (JJR&D, LLC, priority 2022, dated 2025).
Read-outs that look alike come from different tables or passages of the source.

Columns and labels:
CIA [1] = conditions: studies on humans
CIA [2] = conditions: neonatal rat model
[3] = tested on: most commonly used alopecic chemotherapies; conditions: topical pretreatment, rats
[4] = tested on: cyclophosphamide-induced alopecia; conditions: animal studies

For `Cl[TeH]1(Cl)(Cl)OCCO1` [AS101], the “Protective role against CIA” value (CIA [1]) is listed as “protective role” and the “Protective role against CIA” value (CIA [2]) is listed as “protective role”.
For `C=C1/C(=C\C=C2/CCC[C@]3(C)[C@@H]([C@H](C)CCCC(C)(C)O)CC[C@@H]23)C[C@@H](O)C[C@@H]1O` [Calcitriol, 1,25-(OH)2D3], the “Protection from the most commonly used alopecic chemotherapies” value [3] is listed as “protected”, the “Patients with alopecia of <50% from baseline” value (alopecia; Week 7, of 23 female patients, topical 5-80 μg/mL twice daily) is listed as 8 patients and the “Patients with <50% alopecia maintained” value (alopecia; Week 15, of 23 female patients, topical 5-80 μg/mL twice daily) is listed as 2 patients. The Maximum tolerated dose (alopecia; topical drug product, dose escalation up to 80 μg/mL twice daily) was “not reached”.
For epidermal growth factor, the “Protection from cyclophosphamide (CTX)-induced alopecia” value [4] is given as “lack of protection”.
For “recombinant interleukin 1 β: recombinant interleukin 1 β”, the “Protection from cyclophosphamide (CTX)-induced alopecia” value [4] is listed as “lack of protection”.
